Earlier results as cited in Sander's compilation of Henry's law constants.
“And” between values parts separate entries of the source, which are not always exact repeats. Identical values can stand only once.

Experiment: Henry solubility constant Hcp at 298.15 K (mol/(m3 Pa))
Conditions: cited value
[1] = reference: Burkholder et al. (2015)
[2] = reference: Burkholder et al. (2019)
[3] = reference: Sander et al. (2006)
[4] = reference: Sander et al. (2011)
[5] = reference: Plyasunov et al. (2006)
[6] = reference: Barcelo and Hennion (1997)
[7] = reference: Fogg and Sangster (2003)
[8] = reference: Gaffney and Senum (1984)

ClN(Cl)Cl [nitrogen trichloride]
Henry solubility constant Hcp [1]: 0.00099
Henry solubility constant Hcp [2]: 0.00099
Henry solubility constant Hcp [3]: 0.00099
Henry solubility constant Hcp [4]: 0.00099

FN(F)F [nitrogen trifluoride]
Henry solubility constant Hcp [1]: 7.9e-06
Henry solubility constant Hcp [2]: 7.9e-06
Henry solubility constant Hcp [4]: 7.9e-06

O=NCl [nitrosyl chloride]
Henry solubility constant Hcp [1]: > 0.00049
Henry solubility constant Hcp [2]: > 0.00049

O=NO [nitrous acid]
Henry solubility constant Hcp (reference: Schwartz and White (1981)): 0.48

CCCCCCCCC=O [nonanal]
Henry solubility constant Hcp (reference: Brockbank (2013)): 0.011

CCCCCCCCC [nonane]
Henry solubility constant Hcp (reference: Brockbank (2013)): 2.3e-06

CCCCCCCCCc1ccccc1 [nonylbenzene]
Henry solubility constant Hcp (reference: Brockbank (2013)): 0.00014

CCCCCCCC [octane]
Henry solubility constant Hcp (reference: Brockbank (2013)): 3.4e-06

CCCCCCCC#N [octanenitrile]
Henry solubility constant Hcp [5]: 0.057

CCCCCCCCc1ccccc1 [octylbenzene]
Henry solubility constant Hcp (reference: Brockbank (2013)): 0.00018

CNC(=O)ON=C(SC)C(=O)N(C)C [oxamyl]
Henry solubility constant Hcp [6]: 38

O=CC(=O)O [oxoethanoic acid]
Henry solubility constant Hcp [4]: 110

O=[O+][O-] [ozone]
Henry solubility constant Hcp (reference: Biń (2005)): 7.6e-05
Henry solubility constant Hcp [1]: 0.0001
Henry solubility constant Hcp [2]: 0.0001
Henry solubility constant Hcp (reference: Perry and Chilton (1973)): 0.00012
Henry solubility constant Hcp [3]: 0.0001
Henry solubility constant Hcp [4]: 0.0001
Henry solubility constant Hcp (reference: Warneck (2003)): 0.00011

CCOP(=S)(OCC)Oc1ccc([N+](=O)[O-])cc1 [parathion]
Henry solubility constant Hcp [6]: 0.8
Henry solubility constant Hcp (reference: MacBean (2012b)): 33

CCCCN(CC)C(=O)SCCC [pebulate]
Henry solubility constant Hcp [6]: 0.00084

CCC(CC)Nc1c([N+](=O)[O-])cc(C)c(C)c1[N+](=O)[O-] [penoxaline]
Henry solubility constant Hcp [6]: 0.0026

ClC(Cl)C(Cl)(Cl)Cl [pentachloroethane]
Henry solubility constant Hcp (reference: Brockbank (2013)): 0.0042
Henry solubility constant Hcp [2]: 0.0041

CCCCC=O [pentanal]
Henry solubility constant Hcp (reference: Brockbank (2013)): 0.066

CCCCC [pentane]
Henry solubility constant Hcp (reference: Brockbank (2013)): 7.2e-06

N#CCCCC#N [pentanedinitrile]
Henry solubility constant Hcp [5]: 780

O=C(O)CCCC(=O)O [pentanedioic acid]
Henry solubility constant Hcp [1]: 3.8e+07
Henry solubility constant Hcp [2]: 3.8e+07

CCCCC#N [pentanenitrile]
Henry solubility constant Hcp (reference: Brockbank (2013)): 0.16
Henry solubility constant Hcp [5]: 0.14

CCCCCOC(=O)CCC [pentyl butanoate]
Henry solubility constant Hcp (reference: Brockbank (2013)): 0.017

CCCCCOC(C)=O [pentyl ethanoate]
Henry solubility constant Hcp (reference: Brockbank (2013)): 0.025
Henry solubility constant Hcp (reference: Meynier et al. (2003)): 0.025

CCCCCOC=O [pentyl methanoate]
Henry solubility constant Hcp (reference: Brockbank (2013)): 0.017

CCCCCc1ccccc1 [pentylbenzene]
Henry solubility constant Hcp (reference: Brockbank (2013)): 0.0006

CC(=O)O[O] [peroxyacetyl radical]
Henry solubility constant Hcp [1]: < 0.00099
Henry solubility constant Hcp [2]: < 0.00099
Henry solubility constant Hcp [3]: < 0.00099
Henry solubility constant Hcp [4]: < 0.00099

c1cc2cccc3c4cccc5cccc(c(c1)c23)c54 [perylene]
Henry solubility constant Hcp (reference: Mackay et al. (1992b)): 330

c1ccc2c(c1)ccc1ccccc12 [phenanthrene]
Henry solubility constant Hcp (reference: Brockbank (2013)): 0.34
Henry solubility constant Hcp [7]: 0.23
Henry solubility constant Hcp (reference: Goldstein (1982)): 0.093
Henry solubility constant Hcp (reference: McCarty (1980)): 0.076

COC(=O)Nc1cccc(OC(=O)Nc2cccc(C)c2)c1 [phenmedipham]
Henry solubility constant Hcp [6]: 120000

CC(C)=CC1C(C(=O)OCc2cccc(Oc3ccccc3)c2)C1(C)C (stereo unspecified) [phenothrin]
Henry solubility constant Hcp (reference: MacBean (2012b)): 1.5

CC(=O)Oc1ccccc1 [phenyl ethanoate]
Henry solubility constant Hcp (reference: Brockbank (2013)): 1.3

CCOP(=S)(OCC)SCSCC [phorate]
Henry solubility constant Hcp [6]: 0.015

COP(=S)(OC)SCN1C(=O)c2ccccc2C1=O [phosmet]
Henry solubility constant Hcp [6]: 10

Nc1c(Cl)c(Cl)nc(C(=O)O)c1Cl [picloram]
Henry solubility constant Hcp [6]: 290

COc1nc(NC(C)C)nc(NC(C)C)n1 [prometone]
Henry solubility constant Hcp [6]: 110

CSc1nc(NC(C)C)nc(NC(C)C)n1 [prometryn]
Henry solubility constant Hcp [6]: 20

CC(C)N(C(=O)CCl)c1ccccc1 [propachlor]
Henry solubility constant Hcp [6]: 0.9

CCOC(=O)CC(=O)OCC [propanedioic acid, diethyl ester]
Henry solubility constant Hcp (reference: Brockbank (2013)): 3.9

CC(C)=O [propanone]
Henry solubility constant Hcp (reference: Brockbank (2013)): 0.29
Henry solubility constant Hcp [1]: 0.27
Henry solubility constant Hcp [2]: 0.27
Henry solubility constant Hcp (reference: Butler and Ramchandani (1935)): 0.3
Henry solubility constant Hcp (reference: Cabani et al. (1981)): 0.27
Henry solubility constant Hcp [7]: 0.26
Henry solubility constant Hcp [8]: 0.3
Henry solubility constant Hcp (reference: Hine and Weimar (1965)): 0.031
Henry solubility constant Hcp (reference: Poulain et al. (2010)): 0.33
Henry solubility constant Hcp [3]: 0.28
Henry solubility constant Hcp [4]: 0.27
Henry solubility constant Hcp (reference: Schaffer and Daubert (1969)): 0.22

CC(C)Nc1nc(Cl)nc(NC(C)C)n1 [propazine]
Henry solubility constant Hcp [6]: 99

C=CC=O [propenal]
Henry solubility constant Hcp (reference: Brockbank (2013)): 0.072
Henry solubility constant Hcp [8]: 0.081
Henry solubility constant Hcp (reference: Goldstein (1982)): 0.1
Henry solubility constant Hcp (reference: Howard (1989)): 2.2

C=CC [propene]
Henry solubility constant Hcp (reference: Deno and Berkheimer (1960)): 9.2e-05

CCCC1COC(Cn2cncn2)(c2ccc(Cl)cc2Cl)O1 (stereo unspecified) [propiconazole]
Henry solubility constant Hcp [6]: 24

CNC(=O)Oc1ccccc1OC(C)C [propoxur]
Henry solubility constant Hcp [6]: 0.076

CCCOC(=O)CCC [propyl butanoate]
Henry solubility constant Hcp (reference: Brockbank (2013)): 0.018

CCCOC(C)=O [propyl ethanoate]
Henry solubility constant Hcp (reference: Brockbank (2013)): 0.044

CCCOC=O [propyl methanoate]
Henry solubility constant Hcp (reference: Brockbank (2013)): 0.031
Henry solubility constant Hcp [1]: 0.026
Henry solubility constant Hcp [2]: 0.026
Henry solubility constant Hcp [4]: 0.026

CCCOC(=O)CC [propyl propanoate]
Henry solubility constant Hcp (reference: Brockbank (2013)): 0.026

CCCc1ccccc1 [propylbenzene]
Henry solubility constant Hcp (reference: Brockbank (2013)): 0.00091

C#CC(C)(C)NC(=O)c1cc(Cl)cc(Cl)c1 [propyzamide]
Henry solubility constant Hcp [6]: 0.052

COC(=O)N(OC)c1ccccc1COc1ccn(-c2ccc(Cl)cc2)n1 [pyraclostrobine]
Henry solubility constant Hcp (reference: MacBean (2012b)): 190000

CCOC(=O)COc1cc(-c2nn(C)c(OC(F)F)c2Cl)c(F)cc1Cl [pyraflufen-ethyl]
Henry solubility constant Hcp (reference: MacBean (2012b)): 12000

CCCCCCCCSC(=O)Oc1cc(Cl)nnc1-c1ccccc1 [pyridate]
Henry solubility constant Hcp [6]: 300

[Rn] [radon]
Henry solubility constant Hcp (reference: Clever (1979b)): 9.1e-05

CCNc1nc(Cl)nc(NCC)n1 [simazine]
Henry solubility constant Hcp [6]: 29

CCOP(=S)(OCC)OP(=S)(OCC)OCC [sulfotep]
Henry solubility constant Hcp [6]: 0.0099

O=S=O [sulfur dioxide]
Henry solubility constant Hcp (reference: Beilke and Gravenhorst (1978)): 0.012
Henry solubility constant Hcp [1]: 0.013
Henry solubility constant Hcp [2]: 0.013
Henry solubility constant Hcp (reference: Edwards et al. (1978)): 0.012
Henry solubility constant Hcp (reference: Maahs (1982)): 0.012
Henry solubility constant Hcp (reference: Pandis and Seinfeld (1989)): 0.012
Henry solubility constant Hcp (reference: Rodríguez-Sevilla et al. (2001)): 0.012
Henry solubility constant Hcp [3]: 0.013
Henry solubility constant Hcp [4]: 0.013
Henry solubility constant Hcp (reference: Yoo et al. (1986)): 0.012
Henry solubility constant Hcp (reference: Young (1983)): 0.013

CC(C)(C)C(O)(CCc1ccc(Cl)cc1)Cn1cncn1 (stereo unspecified) [tebuconazole]
Henry solubility constant Hcp [6]: 1100

COP(=S)(OC)Oc1ccc(Sc2ccc(OP(=S)(OC)OC)cc2)cc1 [temefos]
Henry solubility constant Hcp [6]: 1.7

Cc1[nH]c(=O)n(C(C)(C)C)c(=O)c1Cl [terbacil]
Henry solubility constant Hcp [6]: 550

CCOP(=S)(OCC)SCSC(C)(C)C [terbufos]
Henry solubility constant Hcp [6]: 0.0099

CCNc1nc(NC(C)(C)C)nc(SC)n1 [terbutryn]
Henry solubility constant Hcp [6]: 7.6

ClC(Cl)=C(Cl)Cl [tetrachloroethene]
Henry solubility constant Hcp (reference: Brockbank (2013)): 0.00056
Henry solubility constant Hcp [1]: 0.00055
Henry solubility constant Hcp [2]: 0.00055
Henry solubility constant Hcp (reference: Dilling (1977)): 0.00081
Henry solubility constant Hcp (reference: Dilling et al. (1975)): 0.00081
Henry solubility constant Hcp [7]: 0.0006
Henry solubility constant Hcp (reference: Goldstein (1982)): 0.00036

ClC(Cl)(Cl)Cl [tetrachloromethane]
Henry solubility constant Hcp (reference: Brockbank (2013)): 0.00035
Henry solubility constant Hcp [1]: 0.00036
Henry solubility constant Hcp [2]: 0.00036
Henry solubility constant Hcp (reference: Dilling (1977)): 0.00046
Henry solubility constant Hcp (reference: Goldstein (1982)): 0.00033
Henry solubility constant Hcp (reference: Harrison et al. (1993)): 0.00038 and 0.00021
Henry solubility constant Hcp (reference: Liss and Slater (1974)): 0.00037
Henry solubility constant Hcp [3]: 0.00034
Henry solubility constant Hcp [4]: 0.00034

FC(F)(F)C(F)(F)C(F)(F)C(F)(F)C(F)(F)C(F)(F)F [tetradecafluorohexane]
Henry solubility constant Hcp (reference: Brockbank (2013)): 9.3e-09

FC(F)(F)F [tetrafluoromethane]
Henry solubility constant Hcp [1]: 2.1e-06
Henry solubility constant Hcp [2]: 2.1e-06
Henry solubility constant Hcp [4]: 2.1e-06

C1CCOCC1 [tetrahydropyran]
Henry solubility constant Hcp (reference: Brockbank (2013)): 0.081

CN(C)C(=S)SSC(=S)N(C)C [thiram]
Henry solubility constant Hcp (reference: MacBean (2012b)): 30

C/C=C/CCCC [trans-2-heptene]
Henry solubility constant Hcp (reference: Brockbank (2013)): 2.4e-05

CC(C)N(C(=O)SCC(Cl)=C(Cl)Cl)C(C)C [triallate]
Henry solubility constant Hcp [6]: 0.01

COC(=O)c1ccccc1S(=O)(=O)NC(=O)N(C)c1nc(C)nc(OC)n1 [tribenuron-methyl]
Henry solubility constant Hcp (reference: MacBean (2012b)): 9.7e+07

O=C(O)C(Br)(Br)Br [tribromoethanoic acid]
Henry solubility constant Hcp [1]: 3000
Henry solubility constant Hcp [2]: 3000
Henry solubility constant Hcp [4]: 3000
